These results are taken from patent EP0497091A1, “Bridged cyclic ketal derivatives” (GLAXO GROUP LIMITED, priority 1991, dated 1992).

Where a name gives a salt, the structure may show the parent alone. Some results are limits rather than exact numbers.

The target in one assay is T1, squalene synthase (Rattus norvegicus, UniProt Q02769).
T1 construct: from tissue; host or cells: rat liver homogenate
T1 sequence (Q02769 1-416): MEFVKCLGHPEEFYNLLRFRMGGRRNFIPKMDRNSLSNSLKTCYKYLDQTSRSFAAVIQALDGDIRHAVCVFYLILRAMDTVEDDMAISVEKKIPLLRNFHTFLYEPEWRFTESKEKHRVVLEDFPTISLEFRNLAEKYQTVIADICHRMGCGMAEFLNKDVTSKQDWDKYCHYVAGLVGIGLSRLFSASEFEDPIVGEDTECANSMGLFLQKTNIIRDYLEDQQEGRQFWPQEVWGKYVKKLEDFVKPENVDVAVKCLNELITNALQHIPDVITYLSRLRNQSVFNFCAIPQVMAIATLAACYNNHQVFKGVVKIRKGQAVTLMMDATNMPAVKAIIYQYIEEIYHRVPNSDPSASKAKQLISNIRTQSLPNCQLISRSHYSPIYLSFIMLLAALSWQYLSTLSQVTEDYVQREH
The assay is described as follows: Inhibition of squalene synthase ([14C]squalene production from [2-14C]farnesylpyrophosphate).
Conditions: not given
It counts as biochemical. The text has this: A. Biller et al. in J. […] [¹⁴C]squalene is separated from unreacted substrate on thin layer chromatography plates and determined by liquid scintillation counting. […] Acta, Volume 877, 50-60 (1986) and modified to include measurement of cholesterol by high performance liquid chromatography (h.p.l.c.). […] A. […] [¹⁴C] Squalene was separated from unreacted substrate on thin layer chromatography plates and determined by liquid scintillation counting. Inhibition of squalene synthase was quantified by incubating rat liver homogenate with various concentrations of the test compound in the presence of [2-¹⁴C] farnesylpyrophosphate. The concentration of compound giving 50% inhibition of [¹⁴C] squalene production in a 30 minute assay was taken as the IC₅₀ value.
Turning to `C=C(CC[C@]12O[C@H](C(=O)O)[C@@](O)(C(=O)O)[C@](C(=O)O)(O1)[C@H](OC(=O)/C=C/c1ccccc1)[C@H]2O)[C@@H](OC(C)=O)[C@H](C)Cc1ccccc1` (relative stereo) [Example 49, [1S-[1α(4R*,5S*),3α,4β,5α,6α(2E),7β]] 1-(4-Acetyloxy-5-methyl-3-methylene-6-phenylhexyl)-4,6,7-trihydroxy-2,8-dioxabicyclo[3.2.1]octane-3,4,5-tricarboxylic acid, 6-(3-phenyl-2-propenoate)], the IC50 is < 0.1 µM.

As for `C=C(CC[C@]12O[C@H](C(=O)O)[C@@](O)(C(=O)O)[C@](C(=O)O)(O1)[C@H](OC(=O)OC)[C@H]2O)[C@@H](OC(C)=O)[C@H](C)Cc1ccccc1` (relative stereo) [Example 56, [1S-[1α(4R*,5S*),3α,4β,5α,6α,7β]] 1-(4-Acetyloxy-5-methyl-3-methylene-6-phenylhexyl)-4,7-dihydroxy-6-[(methoxycarbonyl)oxy]-2,8-dioxabicyclo[3.2.1]octane-3,4,5-tricarboxylic acid], the IC50 is < 0.1 µM. As for `CC[C@H](C)C[C@H](C)/C=C/C(=O)O[C@@H]1[C@@H](O)[C@@]2(C/C=C(\C)[C@@H](O)[C@H](C)Cc3ccccc3)O[C@H](C(=O)O)[C@@](O)(C(=O)O)[C@]1(C(=O)O)O2` (relative stereo) [Example 5, [1S-[1α[(E),4R*,5S*],3α,4β,5α,6α(2E,4R*,6R*),7β]] 1-(4-Hydroxy-3,5-dimethyl-6-phenyl-2-hexenyl)-4,6,7-trihydroxy-2,8-dioxabicyclo[3.2.1]octane-3,4,5-tricarboxylic acid, 6-(4,6-dimethyl-2-octenoate)], the IC50 was < 0.1 µM. As for `C=C(CCC12OC(C(=O)O)C(O)(C(=O)O)C(C(=O)O)(O1)C(OC(=O)C=CC(C)CC(C)CC)C2OC(=O)OC)C(OC(C)=O)C(C)Cc1ccccc1` (stereo not drawn) [Example 26, [1S-[1α(4R*,5S*),3α,4β,5α,6α(2E,4R*,6R*),7β]] 1-(4-Acetyloxy-5-methyl-3-methylene-6-phenylhexyl)-4,6-dihydroxy-7-[(methoxycarbonyl)oxy]-2,8-dioxabicyclo[3.2.1]octane-3,4,5-tricarboxylic acid, 6-(4,6-dimethyl-2-octenoate)], the IC50 was < 0.1 µM.

For `C=C(CC[C@]12O[C@H](C(=O)O)[C@@](O)(C(=O)O)[C@](C(=O)O)(O1)[C@H](OC(=O)OCCCC)[C@H]2O)[C@@H](OC(C)=O)[C@H](C)Cc1ccccc1` (relative stereo) [Example 60, [1S-[1α(4R*,5S*)3α,4β,5α,6α,7β]] 1-(4-Acetyloxy-5-methyl-3-methylene-6-phenylhexyl)-6-[(butoxycarbonyl)oxy]-4,7-dihydroxy-2,8-dioxabicyclo[3.2.1]octane-3,4,5-tricarboxylic acid], the IC50 is < 0.1 µM. On the same count and under the same terms, for `C=C(CCC12OC(C(=O)O)C(OC(C)=O)(C(=O)O)C(C(=O)O)(O1)C(OC(=O)C=CC(C)CC(C)CC)C2OC(C)=O)C(OC(C)=O)C(C)Cc1ccccc1` (stereo not drawn) [Example 25, [1S-[1α(4R*,5S*),3α,4β,5α,6α(2E,4R*,6R*),7β]] 1-(4-Acetyloxy-5-methyl-3-methylene-6-phenylhexyl)-4,7-diacetyloxy-6-hydroxy-2,8-dioxabicyclo[3.2.1]octane-3,4,5-tricarboxylic acid, 6-(4,6-dimethyl-2-octenoate)] the value was < 0.1 µM; for `CCC(C)CC(C)CCC(=O)OC1C(O)C2(CCC(C)=CC(C)Cc3ccccc3)OC(C(=O)O)C(O)(C(=O)O)C1(C(=O)O)O2` (mixture of isomers) [Example 15, [1S-[1α[(Z/E),5S*],3α,4β,5α,6α(4S*6R*),7β]] 1-(3,5-Dimethyl-6-phenyl-3-hexenyl)-4,6,7-trihydroxy-2,8-dioxabicyclo[3.2.1]octane-3,4,5-tricarboxylic acid, 6-(4,6-dimethyloctanoate)], < 0.1 µM. Still for that read-out and setting: for `C=C(CC[C@]12O[C@H](C(=O)O)[C@@](O)(C(=O)O)[C@](C(=O)O)(O1)[C@H](OC(=O)c1ccccc1)[C@H]2O)[C@@H](OC(C)=O)[C@H](C)Cc1ccccc1` (relative stereo) [Example 47, [1S-[4α(4R*,5S*),3α,4β,5α,6α,7β]] 1-(4-Acetyloxy-5-methyl-3-methylene-6-phenylhexyl)-4,6,7-trihydroxy-2,8-dioxabicyclo[3.2.1]octane-3,4,5-tricarboxylic acid, 6-benzoate] the value was < 0.1 µM. Still for that read-out and setting: for `CC[C@H](C)C[C@H](C)/C=C/C(=O)O[C@@H]1[C@@H](O)[C@@]2(C/C=C(\C)C[C@H](C)Cc3ccccc3)O[C@H](C(=O)O)[C@@](O)(C(=O)O)[C@]1(C(=O)O)O2` (relative stereo) [Example 9, [1S-[1α[(E),5R*],3α,4β,5α,6α(2E,4R*,6R*),7β]] 1-(3,5-Dimethyl-6-phenyl-2-hexenyl)-4,6,7-trihydroxy-2,8-dioxabicyclo[3.2.1]octane-3,4,5-tricarboxylic acid, 6-(4,6-dimethyl-2-octenoate)] the value was < 0.1 µM.

The same assay, now with this note: rat liver homogenate; [2-¹⁴C] farnesylpyrophosphate as substrate; 50% inhibition of [¹⁴C] squalene production in a 30 minute assay; read-out: IC₅₀.
As for `CCC(C)CC(C)C=CC(=O)OC1C(O)C2(CCC(C)C(O)C(C)Cc3ccccc3)OC(C(=O)O)C(O)(C(=O)O)C1(C(=O)O)O2` (single isomer, unassigned) [Example 7, [1S-[1α[3R*(S*),4R*,5S*],3α,4β,5α,6α(2E,4R*,6R*),7β]] and [1S-[1α[3R*(S*),4S*,5S*],3α,4β,5α,6α(2E,4R*,6R*),7β]] 1-(4-Hydroxy-3,5-dimethyl-6-phenylhexyl)-4,6,7-trihydroxy-2,8-dioxabicyclo[3.2.1]octane-3,4,5-tricarboxylic acid, 6-(4,6-dimethyl-2-octenoate), isomer 1 and isomer 2], the IC50 was < 0.1 µM. On the same count and under the same terms, for `CCC(C)CC(C)CCC(=O)OC1C(O)C2(CCC(C)C(=O)C(C)Cc3ccccc3)OC(C(=O)O)C(O)(C(=O)O)C1(C(=O)O)O2` (single isomer, unassigned; isomer 1) [isomer 1 in Example 16, [1S-[1α(3R*(S*),5S*),3α,4β,5α,6α(4S*,6R*),7β]] 1-(3,5-Dimethyl-4-oxo-6-phenylhexyl)-4,6,7-trihydroxy-2,8-dioxabicyclo[3.2.1]octane-3,4,5-tricarboxylic acid, 6-(4,6-dimethyloctanoate), 3,4,5-tripotassium salt] the value was < 0.1 µM; for `COC(=O)OC1C(O)C2(CCC(C)C(OC(C)=O)C(C)Cc3ccccc3)OC(C(=O)O)C(O)(C(=O)O)C1(C(=O)O)O2` (stereo not drawn) [Compound (I) in Example 65, [1S-[1α(3R*S*,4S*,5S*),3α,4β,5α,6α,7β]] 1-(4-Acetyloxy-3,5-dimethyl-6-phenylhexyl)-4,7-dihydroxy-6-[[(methoxycarbonyl]oxy]-2,8-dioxabicyclo[3.2.1]octane-3,4,5-tricarboxylic acid], < 0.1 µM; for `C=C(CCC12OC(C(=O)O)C(O)(C(=O)O)C(C(=O)O)(O1)C(OC(=O)CCCCC(C)=O)C2O)C(OC(C)=O)C(C)Cc1ccccc1` (stereo not drawn) [Example 53, [1S-[1α(4R*,5S*),3α,4β,5α,6α,7β]] 1-(4-Acetyloxy-5-methyl-3-methylene-6-phenylhexyl)-4,6,7-trihydroxy-2,8-dioxabicyclo[3.2.1]octane-3,4,5-tricarboxylic acid, 6-(6-oxo-heptanoate)], < 0.1 µM.
